Results on 16 compounds are retold here after US20250214991A1 (Oncopia Therapeutics, Inc. d/b/a/ SK Life Science Labs, priority 2022, published 2025).

SMILES strings stand for the structures.

Assay [1] deals with T1, IKZF2 (Homo sapiens (Human), UniProt Q96SW2+Q9UKS7). The assay is described as follows: In vitro IKZF2 HiBit Assay (HEK293T Flp-in-HiBiT cells). Type of assay: cell-based. The following applies: HEK293T Flp-in-HiBiT cells, 6 hrs incubation; for DC50: read-out: IKZF2 HiBit DC50; for Dmax: HEK-293T, read-out: IKZF2 HiBit Dmax (%). The essentials:
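HEK293T Flp-in cells carrying an endogenous N-terminal HiBiT tag on IKZF2 were exposed to compound for 6 h at 0.1% DMSO. The dilution series was 11 doses at 3-fold, diluted from 1 mM. Nano-Glo HiBiT lytic luminescence, normalized to DMSO, gave DC50 for 50% degradation and Dmax across the concentration range, both reported in letter bins.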
A general note: The HiBiT peptide binds its large partner to form an active luciferase.

Another assay deals with IKZF1 (Homo sapiens (Human), UniProt Q13422+Q96SW2). In words: In vitro IKZF1 HiBit Assay (HEK293T Flp-in-HiBiT-IKZF1 stable cell line). In kind it is cell-based. The following applies: HEK293T Flp-in-HiBiT-IKZF1 stable cell line, 6 hrs incubation; for DC50: read-out: IKZF1 HiBit DC50; for Dmax: HEK-293T, read-out: IKZF1 HiBit Dmax (%). Put shortly: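 HEK293T Flp-in cells carrying N-terminal HiBiT-tagged IKZF1 were exposed to compound (0.1% DMSO) for 6 h at 3000 cells/well. HiBiT luminescence was read after lytic LgBiT detection. DC50 and Dmax were taken from DMSO-normalized dose-response curves.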

In assay [2] the target is T1, IKZF2. In words: In vitro IKZF2 FACS Assay in Jurkat cells. In kind it is cell-based. The following applies: 24 hrs; for DC50: half maximal degradation concentration; for Dmax: maximal degradation percentage. The method, then:
In vitro IKZF2 FACS Assay
DC50, A: <1 nM; B: 1-10 nM; C: 10-100 nM; D: 100-1000 nM; E: >1000 nM. Dmax, A: >80%; B: 60-80%; C: 40-60%; D: 20-40%; E: <20%.

The next assay addresses CRBN/DDB1 (Homo sapiens (Human), UniProt Q96SW2). The assay is described as follows: IC50 measurements for binding to CRBN/DDB1 (HTRF). The following applies: His tagged CRBN+DDB, Cy5-labeled Thalidomide probe, one hour. Put shortly: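 HTRF competition binding with 2 nM His-tagged CRBN-DDB1 complex, 60 nM Cy5-thalidomide probe and 0.4 nM anti-His Tb cryptate in 50 mM HEPES pH 7.5, 1 mM TCEP, 0.01% Brij-35, 50 mM NaCl, 0.1% BSA. Read after 1 h at room temperature; IC50 from four-parameter dose-response fit.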
For orientation: Time-resolved FRET reads energy transfer from a long-lived donor to a nearby acceptor.

Chain of CRBN/DDB1 (Q96SW2 whole entry, species assumed): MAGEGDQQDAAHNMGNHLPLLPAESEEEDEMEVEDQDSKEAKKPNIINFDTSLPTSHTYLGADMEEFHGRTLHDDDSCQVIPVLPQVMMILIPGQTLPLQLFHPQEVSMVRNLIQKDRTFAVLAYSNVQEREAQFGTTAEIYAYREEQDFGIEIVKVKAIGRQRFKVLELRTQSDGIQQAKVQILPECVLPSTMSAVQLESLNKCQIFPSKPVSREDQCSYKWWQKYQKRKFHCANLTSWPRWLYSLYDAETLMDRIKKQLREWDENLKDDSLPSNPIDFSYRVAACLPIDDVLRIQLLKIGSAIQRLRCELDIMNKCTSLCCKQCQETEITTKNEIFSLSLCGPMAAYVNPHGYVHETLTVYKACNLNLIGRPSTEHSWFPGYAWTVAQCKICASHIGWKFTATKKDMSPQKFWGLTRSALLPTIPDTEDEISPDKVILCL
Chain of CRBN/DDB1 (Q16531 whole entry partner, species assumed): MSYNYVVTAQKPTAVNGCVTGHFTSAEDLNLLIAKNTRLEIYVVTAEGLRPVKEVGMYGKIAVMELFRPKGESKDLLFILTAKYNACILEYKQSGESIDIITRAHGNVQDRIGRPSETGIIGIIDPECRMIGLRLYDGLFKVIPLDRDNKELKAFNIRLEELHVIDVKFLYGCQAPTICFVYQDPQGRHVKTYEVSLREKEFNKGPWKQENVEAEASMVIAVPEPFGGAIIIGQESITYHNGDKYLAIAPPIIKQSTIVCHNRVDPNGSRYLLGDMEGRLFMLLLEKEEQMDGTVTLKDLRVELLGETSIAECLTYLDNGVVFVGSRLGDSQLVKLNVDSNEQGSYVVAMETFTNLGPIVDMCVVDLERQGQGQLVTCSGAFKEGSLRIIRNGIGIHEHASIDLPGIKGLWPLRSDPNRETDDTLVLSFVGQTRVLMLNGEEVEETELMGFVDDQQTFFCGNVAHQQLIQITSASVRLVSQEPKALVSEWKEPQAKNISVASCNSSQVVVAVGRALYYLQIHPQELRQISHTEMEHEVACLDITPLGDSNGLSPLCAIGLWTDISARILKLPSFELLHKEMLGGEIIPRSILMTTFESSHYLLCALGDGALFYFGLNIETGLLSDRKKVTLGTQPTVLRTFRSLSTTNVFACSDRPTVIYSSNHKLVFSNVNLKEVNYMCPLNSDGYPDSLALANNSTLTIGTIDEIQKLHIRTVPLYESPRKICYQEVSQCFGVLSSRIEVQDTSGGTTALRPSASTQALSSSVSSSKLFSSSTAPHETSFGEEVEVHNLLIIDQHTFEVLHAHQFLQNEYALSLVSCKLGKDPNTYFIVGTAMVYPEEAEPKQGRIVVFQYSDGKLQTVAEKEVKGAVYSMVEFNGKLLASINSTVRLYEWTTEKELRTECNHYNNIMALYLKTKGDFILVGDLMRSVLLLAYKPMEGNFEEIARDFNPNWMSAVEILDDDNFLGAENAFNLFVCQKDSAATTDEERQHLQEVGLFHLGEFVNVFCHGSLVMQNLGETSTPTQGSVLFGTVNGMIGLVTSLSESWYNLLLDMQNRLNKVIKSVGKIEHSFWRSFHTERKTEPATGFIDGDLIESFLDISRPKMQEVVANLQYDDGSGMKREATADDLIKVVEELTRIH
Chain of IKZF1 (Q13422 whole entry): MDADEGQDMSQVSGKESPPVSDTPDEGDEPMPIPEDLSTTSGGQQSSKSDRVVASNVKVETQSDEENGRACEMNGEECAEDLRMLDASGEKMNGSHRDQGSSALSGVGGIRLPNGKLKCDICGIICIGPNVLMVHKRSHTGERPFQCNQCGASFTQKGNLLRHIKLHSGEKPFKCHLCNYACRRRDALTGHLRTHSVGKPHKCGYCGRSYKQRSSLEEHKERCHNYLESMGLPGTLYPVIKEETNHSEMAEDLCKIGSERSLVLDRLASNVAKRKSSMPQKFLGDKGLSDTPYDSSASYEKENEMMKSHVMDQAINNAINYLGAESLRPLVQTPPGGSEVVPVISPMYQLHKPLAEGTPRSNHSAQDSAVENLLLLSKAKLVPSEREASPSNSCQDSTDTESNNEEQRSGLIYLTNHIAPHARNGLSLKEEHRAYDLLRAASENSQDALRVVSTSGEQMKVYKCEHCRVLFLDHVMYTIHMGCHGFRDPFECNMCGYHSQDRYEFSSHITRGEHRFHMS
Chain of IKZF1 (Q96SW2 whole entry): as the sequence (Q96SW2 whole entry, species assumed) above
Chain of IKZF1 (Q16531 2-1140 partner): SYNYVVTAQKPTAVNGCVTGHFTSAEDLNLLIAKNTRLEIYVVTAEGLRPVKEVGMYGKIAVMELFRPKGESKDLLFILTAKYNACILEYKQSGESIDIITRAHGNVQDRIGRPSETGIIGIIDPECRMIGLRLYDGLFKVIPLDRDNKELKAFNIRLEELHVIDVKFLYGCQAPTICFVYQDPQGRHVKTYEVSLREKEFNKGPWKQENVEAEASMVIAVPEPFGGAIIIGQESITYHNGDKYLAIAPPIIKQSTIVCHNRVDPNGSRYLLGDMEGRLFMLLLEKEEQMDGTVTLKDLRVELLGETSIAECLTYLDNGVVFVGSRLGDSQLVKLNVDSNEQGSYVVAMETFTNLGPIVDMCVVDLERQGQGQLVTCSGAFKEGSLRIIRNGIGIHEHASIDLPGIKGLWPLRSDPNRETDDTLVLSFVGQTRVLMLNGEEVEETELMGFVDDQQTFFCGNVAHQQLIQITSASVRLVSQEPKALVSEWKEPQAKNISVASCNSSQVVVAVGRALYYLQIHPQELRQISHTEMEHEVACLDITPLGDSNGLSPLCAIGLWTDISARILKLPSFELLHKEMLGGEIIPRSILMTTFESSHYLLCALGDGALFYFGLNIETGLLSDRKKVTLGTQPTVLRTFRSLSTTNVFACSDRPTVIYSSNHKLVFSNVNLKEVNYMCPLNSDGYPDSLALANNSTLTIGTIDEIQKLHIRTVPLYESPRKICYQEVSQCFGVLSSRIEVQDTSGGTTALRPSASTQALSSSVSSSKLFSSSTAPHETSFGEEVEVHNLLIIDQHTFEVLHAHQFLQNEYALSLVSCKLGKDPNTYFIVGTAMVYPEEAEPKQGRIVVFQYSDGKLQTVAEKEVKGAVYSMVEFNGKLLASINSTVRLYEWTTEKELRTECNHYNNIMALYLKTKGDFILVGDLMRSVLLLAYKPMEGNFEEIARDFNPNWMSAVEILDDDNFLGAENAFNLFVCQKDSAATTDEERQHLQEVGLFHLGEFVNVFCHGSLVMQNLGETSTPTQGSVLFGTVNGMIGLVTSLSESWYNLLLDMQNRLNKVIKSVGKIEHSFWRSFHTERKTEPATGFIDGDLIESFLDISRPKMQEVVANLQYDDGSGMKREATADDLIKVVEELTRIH
T1 sequence (Q9UKS7 whole entry): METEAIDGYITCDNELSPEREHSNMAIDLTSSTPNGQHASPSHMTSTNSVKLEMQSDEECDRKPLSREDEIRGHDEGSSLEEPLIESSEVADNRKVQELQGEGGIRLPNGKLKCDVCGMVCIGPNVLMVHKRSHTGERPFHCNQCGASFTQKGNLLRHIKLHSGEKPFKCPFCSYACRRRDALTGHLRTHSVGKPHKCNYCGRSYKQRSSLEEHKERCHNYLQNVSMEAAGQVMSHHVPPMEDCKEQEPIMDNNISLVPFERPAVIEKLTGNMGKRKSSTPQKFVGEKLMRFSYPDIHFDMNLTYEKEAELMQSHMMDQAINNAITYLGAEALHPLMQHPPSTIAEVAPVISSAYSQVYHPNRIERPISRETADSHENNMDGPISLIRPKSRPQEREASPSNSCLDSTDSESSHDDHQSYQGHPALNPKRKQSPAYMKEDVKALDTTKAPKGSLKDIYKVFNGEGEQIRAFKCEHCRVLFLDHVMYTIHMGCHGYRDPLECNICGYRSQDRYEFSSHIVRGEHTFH
T1 sequence (Q96SW2 whole entry): as the sequence (Q96SW2 whole entry, species assumed) above
T1 sequence (Q16531 2-1140 partner): as the sequence (Q16531 2-1140 partner) above

Consider `O=C1CCC(N2Cc3c(ccc(-c4cc(CN5CCC6(CC5)COC6)c5ccn(C6CS(=O)(=O)C6)c5n4)c3F)C2=O)C(=O)N1` (stereo not shown) [Example 272, 3-(5-(4-((2-oxa-7-azaspiro[3.5]nonan-7-yl)methyl)-1-(1,1-dioxidothietan-3-yl)-1H-pyrrolo[2,3-b]pyridin-6-yl)-4-fluoro-1-oxoisoindolin-2-yl) piperidine-2,6-dione], for which the DC50 on IKZF2 [1] was in the range of 1 to 10 nM; on IKZF1, 10 to 100 nM; at IKZF2 [2], 1 to 10 nM. Besides, the Dmax is more than 80% at IKZF2 [1], 40 to 60% on IKZF1 and more than 80% at IKZF2 [2].

On to `CC1c2cc(-c3cc(CN4CCCC4)c4ccn(C5CS(=O)(=O)C5)c4n3)ccc2C(=O)N1C1CCC(=O)NC1=O` (stereo not shown) [Example 292, 3-(5-(1-(1,1-dioxidothietan-3-yl)-4-(pyrrolidin-1-ylmethyl)-1H-pyrrolo[2,3-b]pyridin-6-yl)-3-methyl-1-oxoisoindolin-2-yl) piperidine-2,6-dione], for which the DC50 at IKZF2 [1] lay in the range of 1 to 10 nM; at IKZF1, 10 to 100 nM; at IKZF2 [2], 1 to 10 nM. Also, the Dmax was more than 80% at IKZF2 [1], 20 to 40% on IKZF1 and more than 80% at IKZF2 [2].

As to `Cn1ccc2c(CN3CCCC3)c(Cl)c(-c3ccc4c(c3F)CN(C3CCC(=O)NC3=O)C4=O)nc21` (stereo not shown) [Example 277, 3-(5-(5-chloro-1-methyl-4-(pyrrolidin-1-ylmethyl)-1H-pyrrolo[2,3-b]pyridin-6-yl)-4-fluoro-1-oxoisoindolin-2-yl) piperidine-2,6-dione], the DC50 is less than 1 nM on IKZF2 [1], more than 10000 nM at IKZF1 and 1 to 10 nM on IKZF2 [2]. In addition, the Dmax is more than 80% at IKZF2 [1], less than 20% on IKZF1 and more than 80% at IKZF2 [2].

For `O=C1CCC(N2Cc3cc(-c4cc(CN5CCCC5)c5nccc(OC(F)F)c5n4)ccc3C2=O)C(=O)N1` (stereo not shown) [Example 249, 3-(5-(8-(difluoromethoxy)-4-(pyrrolidin-1-ylmethyl)-1,5-naphthyridin-2-yl)-1-oxoisoindolin-2-yl) piperidine-2,6-dione], the DC50 on IKZF2 [1] was 1 to 10 nM; at IKZF1, more than 10000 nM; on IKZF2 [2], 1 to 10 nM. Moreover, the Dmax at IKZF2 [1] is more than 80%; at IKZF1 it was less than 20%; at IKZF2 [2] it was more than 80%.

Consider `Nc1[nH]nc2c(CN3CCCC3)cc(-c3ccc4c(c3F)CN(C3CCC(=O)NC3=O)C4=O)nc12` (stereo not shown) [Example 318, 3-(5-(3-amino-7-(pyrrolidin-1-ylmethyl)-2H-pyrazolo[4,3-b]pyridin-5-yl)-4-fluoro-1-oxoisoindolin-2-yl) piperidine-2,6-dione], for which the DC50 on IKZF2 [1] is 1 to 10 nM; at IKZF1, 10 to 100 nM; on IKZF2 [2], 1 to 10 nM. Further, the results for the Dmax at IKZF2 [1], at IKZF1 and on IKZF2 [2] were more than 80%, 60 to 80% and more than 80%, respectively.

On to `CNc1n[nH]c2c(CN3CCCC3)cc(-c3ccc4c(c3)CN(C3CCC(=O)NC3=O)C4=O)nc12` (stereo not shown) [Example 181, 3-(5-(3-(methylamino)-7-(pyrrolidin-1-ylmethyl)-1H-pyrazolo[4,3-b]pyridin-5-yl)-1-oxoisoindolin-2-yl) piperidine-2,6-dione], for which the figures for the DC50 on IKZF2 [1], at IKZF1 and at IKZF2 [2] were 1 to 10 nM, 10 to 100 nM and 1 to 10 nM, respectively. For the same compound, the Dmax was more than 80% on IKZF2 [1], 40 to 60% at IKZF1 and more than 80% at IKZF2 [2].

As to `CC(C)Nc1n[nH]c2c(CN3CCC(C(F)(F)F)CC3)cc(-c3ccc4c(c3F)CN(C3CCC(=O)NC3=O)C4=O)nc12` (stereo not shown) [Example 290, 3-(4-fluoro-5-(3-(isopropylamino)-7-((4-(trifluoromethyl)piperidin-1-yl)methyl)-2H-pyrazolo[4,3-b]pyridin-5-yl)-1-oxoisoindolin-2-yl) piperidine-2,6-dione], the DC50 on IKZF2 [1] was 1 to 10 nM; on IKZF1, more than 10000 nM; at IKZF2 [2], 10 to 100 nM. For the same compound, the values for the Dmax at IKZF2 [1], at IKZF1 and on IKZF2 [2] were 60 to 80%, less than 20% and 60 to 80%, respectively.

On to `Cc1nn(C2COC2)c2nc(-c3ccc4c(c3)CN(C3CCC(=O)NC3=O)C4=O)cc(CN3CCCC3)c12` (stereo not shown) [Example 246, 3-(5-(3-methyl-1-(oxetan-3-yl)-4-(pyrrolidin-1-ylmethyl)-1H-pyrazolo[3,4-b]pyridin-6-yl)-1-oxoisoindolin-2-yl) piperidine-2,6-dione], for which the DC50 at IKZF2 [1] was 1 to 10 nM; on IKZF1 it was more than 10000 nM; at IKZF2 [2], 1 to 10 nM. Also, the values for the Dmax on IKZF2 [1], at IKZF1 and at IKZF2 [2] were more than 80%, less than 20% and more than 80%, respectively.

Turning to `Cn1ccc2c(CN3CCC(F)C3)cc(-c3ccc4c(c3)CN(C3CCC(=O)NC3=O)C4=O)nc21` (stereo not shown) [Example 304, 3-(5-(4-((3-fluoropyrrolidin-1-yl)methyl)-1-methyl-1H-pyrrolo[2,3-b]pyridin-6-yl)-1-oxoisoindolin-2-yl) piperidine-2,6-dione], at IKZF2 [1], the DC50 is 1 to 10 nM and the Dmax was more than 80%. Besides, on IKZF1, the DC50 was more than 10000 nM and the Dmax is less than 20%. The concentration for half-maximal inhibition (IC50) (usually the concentration needed to halve the response being measured) at CRBN/DDB1 was 1000 to 5000 nM.

On to `O=C1CCC(N2Cc3cc(-c4cc(CN5CCC(O)C5)c5cc[nH]c5n4)ccc3C2=O)C(=O)N1` (stereo not shown) [Example 120, 3-(5-(4-((3-hydroxypyrrolidin-1-yl)methyl)-1H-pyrrolo[2,3-b]pyridin-6-yl)-1-oxoisoindolin-2-yl) piperidine-2,6-dione], for which, on IKZF2 [1], the DC50 lay within 10 to 100 nM and the Dmax is more than 80%. On IKZF1, the DC50 was in the range of 100 to 1000 nM and the Dmax lay in the range of 20 to 40%. On CRBN/DDB1, this compound returned a concentration for half-maximal inhibition (IC50) of 100 to 500 nM.

Regarding `CN(C)C(=O)C1CCN(Cc2cc(-c3ccc4c(c3)CN(C3CCC(=O)NC3=O)C4=O)nc3c2ccn3C)CC1` (stereo not shown) [Example 92, 1-((6-(2-(2,6-dioxopiperidin-3-yl)-1-oxoisoindolin-5-yl)-1-methyl-1H-pyrrolo[2,3-b]pyridin-4-yl)methyl)-N,N-dimethylpiperidine-4-carboxamide], the DC50 on IKZF2 [1] is 1 to 10 nM; at IKZF1 it was more than 10000 nM. Moreover, the Dmax was more than 80% at IKZF2 [1] and less than 20% at IKZF1. At CRBN/DDB1, this compound gave an IC50 of less than 100 nM.

With `O=C1CCC(N2Cc3cc(-c4cc(CN5CCCC5)c5ccn(C6CCCC6)c5n4)ccc3C2=O)C(=O)N1` (stereo not shown) [Example 154, 3-(5-(1-cyclopentyl-4-(pyrrolidin-1-ylmethyl)-1H-pyrrolo[2,3-b]pyridin-6-yl)-1-oxoisoindolin-2-yl) piperidine-2,6-dione], the values for the DC50 on IKZF2 [1] and at IKZF1 were 1 to 10 nM and more than 10000 nM, respectively. Besides, the Dmax on IKZF2 [1] was 60 to 80%; on IKZF1, less than 20%. At CRBN/DDB1, this compound registered an IC50 of 500 to 1000 nM.

As to `CN1CC(n2ccc3c(CN4CCCC4)cc(-c4ccc5c(c4)CN(C4CCC(=O)NC4=O)C5=O)nc32)C1` (stereo not shown) [Example 169, 3-(5-(1-(1-methylazetidin-3-yl)-4-(pyrrolidin-1-ylmethyl)-1H-pyrrolo[2,3-b]pyridin-6-yl)-1-oxoisoindolin-2-yl) piperidine-2,6-dione], at IKZF2 [1], the DC50 lay in the range of 1 to 10 nM and the Dmax was more than 80%. Further, at IKZF1, the DC50 is 10 to 100 nM and the Dmax lay within 40 to 60%. On CRBN/DDB1, this compound registered an IC50 of less than 100 nM.

As to `Cn1ccnc1N1CCN(Cc2cc(-c3ccc4c(c3)CN(C3CCC(=O)NC3=O)C4=O)nc3c2ccn3C)CC1` (stereo not shown) [Example 99, 3-(5-(1-methyl-4-((4-(1-methyl-1H-imidazol-2-yl)piperazin-1-yl)methyl)-1H-pyrrolo[2,3-b]pyridin-6-yl)-1-oxoisoindolin-2-yl) piperidine-2,6-dione], at IKZF2 [1], the DC50 was 10 to 100 nM and the Dmax is 40 to 60%. Further, at IKZF1, the DC50 is more than 10000 nM and the Dmax was less than 20%. The same compound displayed an IC50 on CRBN/DDB1 of 100 to 500 nM.

In the case of `Cn1ccc2c(CN3CCOCC3)cc(-c3ccc4c(c3)CN(C3CCC(=O)NC3=O)C4=O)nc21` (stereo not shown) [Example 58, 3-(5-(1-methyl-4-(morpholinomethyl)-1H-pyrrolo[2,3-b]pyridin-6-yl)-1-oxoisoindolin-2-yl) piperidine-2,6-dione], on IKZF2 [1], the DC50 lay within 1 to 10 nM and the Dmax was 60 to 80%. Further, at IKZF1, the DC50 was more than 10000 nM and the Dmax is less than 20%. Besides, the concentration for half-maximal inhibition (IC50) on CRBN/DDB1 was in the range of 500 to 1000 nM.

Turning to `O=C1CCC(N2Cc3cc(-c4ncn5ccc(CN6CCCC6)cc45)ccc3C2=O)C(=O)N1` (stereo not shown) [Example 312, 3-(1-oxo-5-(7-(pyrrolidin-1-ylmethyl)imidazo[1,5-a]pyridin-1-yl)isoindolin-2-yl) piperidine-2,6-dione], the figures for the DC50 at IKZF2 [1] and on IKZF1 were 10 to 100 nM and more than 10000 nM, respectively. The Dmax at IKZF2 [1] is 20 to 40%; at IKZF1, less than 20%. The same compound displayed an IC50 at CRBN/DDB1 of 1000 to 5000 nM.
